# Results published in EP4818177A1, “TRICYCLIC DERIVATIVE INHIBITOR, AND PREPARATION METHOD AND USE THEREFOR” (Shanghai Hansoh Biomedical Co., Ltd., priority 2023, dated 2025).
# pIC50: −log10 of the molar value.
# Tests used:
# HCT116 wild-type cells = test: Cell proliferation inhibition (CellTiter-Glo), wild-type cells; type: cell-based; conditions: 72-240 hours incubation
# From the text: (§1) Test Example 2: Determination of the inhibitory effect of the compounds of the present invention on the proliferation activity of HCT116 and MTAP Knockout HCT116 cells.
# (§2) 1. Experimental objective: to determine the inhibitory effect of the compound on the proliferation activity of HCT116 wild-type and HCT116 MTAP knockout cells. 2. Experimental instruments: Centrifuge (Eppendorf 5810R); microplate reader (BioTek Synergy H1 or PerkinElmer Envision); pipette (Eppendorf or Rainin). 3. Experimental reagents: HCT116 and MTAP Knockout HCT116 cells were purchased from Nanjing Cobioer; Cell Titer-Glo was purchased from Promega (Cat. No. G7573); McCoy' 5A was purchased from Gibco (Cat. No. 12330031); FBS was purchased from Gibco (Cat. No. 10091148); PBS was purchased from Gibco (Cat. No. 10010023); trypsin was purchased from Gibco (Cat. No. 25200056); cell culture plates were purchased from Corning (Cat. No. 3610). 4. Experimental methods: HCT116 and MTAP Knockout HCT116 cells were cultured in McCoy'5A medium containing 10% FBS until an appropriate cell density was reached. The cells were then collected and adjusted to a suitable concentration using complete medium. The cell suspension was seeded into a 96-well plate at 90 µL per well and allowed to adhere overnight in a 37°C, 5% CO2 incubator. Compound solutions of various concentrations were prepared using DMSO and culture medium, with a vehicle control set. The compound solutions were added to the 96-well plate at 10 µL per well, and the plate was incubated in a 37°C, 5% CO2 incubator for an additional 72-240 hours. After incubation, CellTiter-Glo solution was added, and the mixture was mixed uniformly by shaking, followed by incubation in the dark for 10 to 30 minutes. Luminescence was measured using a Synergy H1 or Envision microplate reader. 5. Experimental data processing method: The inhibition rate was calculated using the luminescence signal values, and the concentrations along with the inhibition rates were subjected to non-linear regression curve fitting using Graphpad Prism software to obtain the IC50 values.
# [1] = Pharmacokinetics in rats (plasma) after oral administration; conditions: rat, 5 mg/kg
# [2] = test system: MTAP Knockout HCT116 cells; test: Cell proliferation inhibition (CellTiter-Glo), MTAP knockout cells; type: cell-based; conditions: for Selectivity: HCT116 versus MTAP Knockout HCT116; for pIC50: 72-240 hours incubation, CellTiter-Glo
# From the text: as §1, §2
# [3] = target: T1, PRMT5/MEP50-MTA protein complex (Homo sapiens, UniProt O14744); test: Thermal shift assay: change in melting temperature of the PRMT5/MEP50-MTA protein complex; type: binding; conditions: compound 8 µM, PRMT5/MEP50 2 µM, MTA 2 µM; Tm minus DMSO vehicle control
# T1 construct: purchased Viva Biotech
# T1 sequence (O14744 whole entry): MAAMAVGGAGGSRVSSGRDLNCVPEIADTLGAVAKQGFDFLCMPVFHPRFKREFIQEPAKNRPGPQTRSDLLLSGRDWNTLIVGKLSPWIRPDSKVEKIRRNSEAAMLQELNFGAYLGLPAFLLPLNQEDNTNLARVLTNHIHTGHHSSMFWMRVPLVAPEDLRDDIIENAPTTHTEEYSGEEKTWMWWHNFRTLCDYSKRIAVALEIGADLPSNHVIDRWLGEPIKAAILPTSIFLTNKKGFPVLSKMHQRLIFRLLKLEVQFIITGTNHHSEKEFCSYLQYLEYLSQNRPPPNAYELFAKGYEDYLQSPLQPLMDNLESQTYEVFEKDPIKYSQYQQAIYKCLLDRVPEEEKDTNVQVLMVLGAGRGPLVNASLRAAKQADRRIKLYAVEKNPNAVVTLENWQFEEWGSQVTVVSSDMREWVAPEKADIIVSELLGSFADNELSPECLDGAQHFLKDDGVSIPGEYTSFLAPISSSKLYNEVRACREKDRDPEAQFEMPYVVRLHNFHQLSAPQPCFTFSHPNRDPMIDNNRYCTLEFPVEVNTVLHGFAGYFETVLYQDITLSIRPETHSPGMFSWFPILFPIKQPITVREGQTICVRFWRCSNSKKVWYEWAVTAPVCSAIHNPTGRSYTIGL
# T1 sequence (Q9BQA1 whole entry partner): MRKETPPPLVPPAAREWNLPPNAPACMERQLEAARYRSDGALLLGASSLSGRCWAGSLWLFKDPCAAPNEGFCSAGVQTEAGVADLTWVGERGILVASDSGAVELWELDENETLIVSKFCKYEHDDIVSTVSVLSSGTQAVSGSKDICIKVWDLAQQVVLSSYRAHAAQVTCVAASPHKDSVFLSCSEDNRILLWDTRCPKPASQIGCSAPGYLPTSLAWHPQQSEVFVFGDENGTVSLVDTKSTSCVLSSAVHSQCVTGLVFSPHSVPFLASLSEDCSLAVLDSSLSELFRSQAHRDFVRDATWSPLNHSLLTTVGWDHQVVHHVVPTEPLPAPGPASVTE
# Procedure, shortened: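 Human PRMT5/MEP50 (2 µM) preincubated 30 min at room temperature in 50 mM HEPES, 10 mM DTT, 250 mM NaCl with 2 µM MTA and SYPRO Orange. Compound at 8 µM final, 10 min at room temperature, 2.5% DMSO vehicle control. Melt curve 25→95°C at 0.03°C/s gives Tm.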
# hERG potassium channel = target: T2, hERG potassium channel (Homo sapiens, UniProt Q12809); test: hERG potassium channel inhibitory activity assay (patch clamp, CHO-hERG cells); type: cell-based; conditions: tail current, read-out: inhibitory activity (IC50) against the cardiac hERG potassium channel
# T2 construct: host or cells: CHO cells stably expressing hERG (CHO-hERG)
# T2 sequence (Q12809 whole entry): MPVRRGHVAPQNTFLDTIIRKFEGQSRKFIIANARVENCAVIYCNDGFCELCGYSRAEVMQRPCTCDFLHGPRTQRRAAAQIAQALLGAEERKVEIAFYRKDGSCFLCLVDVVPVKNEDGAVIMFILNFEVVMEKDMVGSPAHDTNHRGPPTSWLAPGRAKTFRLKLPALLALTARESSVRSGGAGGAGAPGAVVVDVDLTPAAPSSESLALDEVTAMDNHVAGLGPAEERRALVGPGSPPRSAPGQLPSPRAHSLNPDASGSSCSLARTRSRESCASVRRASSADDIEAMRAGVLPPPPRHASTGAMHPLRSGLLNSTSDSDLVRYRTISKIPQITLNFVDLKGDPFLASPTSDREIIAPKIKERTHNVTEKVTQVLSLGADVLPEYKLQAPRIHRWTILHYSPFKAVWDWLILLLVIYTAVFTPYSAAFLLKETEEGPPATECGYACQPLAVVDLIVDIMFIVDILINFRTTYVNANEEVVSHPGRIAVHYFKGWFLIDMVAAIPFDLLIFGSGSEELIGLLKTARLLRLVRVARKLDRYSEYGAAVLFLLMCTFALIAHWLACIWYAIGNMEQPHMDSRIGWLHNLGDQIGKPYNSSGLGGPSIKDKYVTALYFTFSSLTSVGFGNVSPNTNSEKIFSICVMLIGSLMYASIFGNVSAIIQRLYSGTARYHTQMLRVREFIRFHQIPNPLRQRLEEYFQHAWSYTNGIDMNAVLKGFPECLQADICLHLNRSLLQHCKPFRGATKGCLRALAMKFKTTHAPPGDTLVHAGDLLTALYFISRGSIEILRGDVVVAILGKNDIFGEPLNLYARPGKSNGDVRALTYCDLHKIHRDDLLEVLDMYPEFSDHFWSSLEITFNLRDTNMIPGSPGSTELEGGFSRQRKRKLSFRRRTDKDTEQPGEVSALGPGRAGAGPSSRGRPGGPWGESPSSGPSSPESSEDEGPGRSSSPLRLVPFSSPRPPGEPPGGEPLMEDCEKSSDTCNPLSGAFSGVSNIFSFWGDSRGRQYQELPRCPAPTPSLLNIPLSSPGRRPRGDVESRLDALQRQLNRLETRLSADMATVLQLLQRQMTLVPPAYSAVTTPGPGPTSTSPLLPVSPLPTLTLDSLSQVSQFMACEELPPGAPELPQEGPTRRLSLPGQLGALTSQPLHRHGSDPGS
# From the text: Test Example 5: hERG potassium channel inhibitory activity assay
# 1. Study objective: to determine the inhibitory effect of the compound on the hERG potassium channel activity. 2. Experimental instruments and reagents: 2.1 Reagents
# 3. Experimental methods • 3.1 Cell culture: The CHO cells stably expressing the hERG potassium channel (CHO-hERG) used in the experiment were obtained from Sophion Bioscience (Ballerup, Denmark), and passaged and cryopreserved at WuXi AppTec Co., Ltd. in Shanghai. The CHO-hERG cells were cultured and passaged in Ham's F-12 medium containing 1 × GlutaMAX, 10% fetal bovine serum, 100 µg/mL G418 and 100 µg/mL hygromycin B at 37°C with 5% CO2. • 3.2 Preparation of intracellular and extracellular solutions: The extracellular solution was prepared once a month, and aliquoted and stored in 1 L storage bottles. The intracellular solution was prepared once every three months, and aliquoted and cryopreserved at -20°C. The intracellular solution was thawed in a 37°C water bath before the experiment and then placed in an ice bath for later use. • 3.3 Preparation of compounds: The compounds were dissolved in 100% DMSO (Sigma-Aldrich, D2650) to prepare 10 mM or 30 mM stock solutions. Before the experiment, the stock solutions of the test compounds were diluted with DMSO to prepare solutions 1000-fold or 333-fold higher than the desired test concentrations, and then further diluted 1000-fold or 333-fold with the extracellular solution to achieve the desired concentrations. • 3.4 Cell preparation: The CHO-hERG cells used in the experiment were cultured for at least two days. When the cell density reached more than 75%, the cells were digested with TrypLE, then resuspended in the extracellular solution, and centrifuged. The supernatant was discarded, and then the cells were further resuspended in 2 mL of extracellular solution for later use. 4. Experimental data processing: In data processing, the peak tail current was baseline-corrected when evaluating the hERG blocking effect. The effect of each compound at various concentrations was expressed as the inhibition rate of the tail current. IC50 values were obtained by fitting the data to the Hill equation: I/Icontrol = Bottom + (Top−Bottom)/(1+10^(∧)((LogIC50−X)*HillSlope)) [formula] • Top: maximum effect; Bottom: minimum effect; Hillslope: slope; X: concentration of the test compound. • IC50: half-maximal inhibitory concentration of the test compound on hERG. […] 5.
# [4] = Homo sapiens, HCT-116, HCT116 wild-type cells
# [5] = Homo sapiens, HCT-116, MTAP Knockout HCT116 cells
SMILES,pIC50 (HCT116 wild-type cells; [4]),"AUC(0-inf) ([1]; male, SD)","Cmax ([1]; male, SD)","MRT inf ([1]; male, SD)","Tmax ([1]; male, SD)","half-life ([1]; male, SD)",Selectivity [2],"pIC50 [2, 5]",ΔTm at 8 µM [3],pIC50 (HCT116 wild-type cells; HCT116 wild-type cells),pIC50 ([2]; MTAP Knockout HCT116 cells),pIC50 (hERG potassium channel),ΔTm (°C) [3],AUC(0-inf) [1],Cmax [1],MRT inf [1],Tmax [1],half-life [1]
"CNN(C(=O)c1cc2c(cn1)nc(N)c1cnn(C)c12)[C@@H]1COc2cc(S(F)(F)(F)(F)F)ccc21 (single isomer, unassigned) [Example 375-P1]",6.88,2130 ng·h/mL,287 ng/mL,5 h,1.3 h,3.3 h,17,8.10,13 °C,–,–,–,–,–,–,–,–,–
"[2H]C([2H])([2H])NN(C(=O)c1cc2c(cn1)nc(N)c1cnn(C)c12)C1COCc2c1ccn1c(C(F)(F)F)cnc21 (single isomer, unassigned) [Example 391-P1]",–,–,–,–,–,–,14,–,–,6.92,8.06,< 4.52,13.02 °C,–,–,–,–,–
"[2H]C([2H])([2H])NN(C(=O)c1cc2c3c(c(N)nc2cn1)COC3)[C@H]1COCc2c1ccn1c(C(F)(F)F)cnc21 (stereo in doubt) [Example 371-P1, (R)-4-amino-N'-(methyl-d3)-N-(3-(trifluoromethyl)-7,10-dihydro-8H-imidazo[1,2-a]pyrano[3,4-c]pyridin-7-yl)-1,3-dihydrofuro[3,4-c][1,7]naphthyridine-8-carbohydrazide]",5.99,4800 ng·h/mL,1600 ng/mL,2.5 h,0.8 h,1.6 h,121,8.07,11.6 °C,–,–,–,–,–,–,–,–,–
"Cc1cc2nc(N)c3cncn3c2cc1C(=O)N(C1COCc2nc(C(F)(F)F)ccc21)N(C)C (stereo not shown) [Example 276, 4-Amino-N',N',7-trimethyl-N-(2-(trifluoromethyl)-5,8-dihydro-6H-pyrano[3,4-b]pyridin-5-yl)imidazo[1,5-a]quinoxaline-8-carbohydrazide]",–,–,–,–,–,–,–,–,10.4 °C,–,–,< 4.52,–,–,–,–,–,–
"CNN(C(=O)c1cc2c3c(c(N)nc2cn1)COC3)[C@@H]1COCc2c1ccn1c(C(F)(F)F)cnc21 [Example 285, 4-Amino-N'-methyl-N-(3-(trifluoromethyl)-7,10-dihydro-8H-imidazo[1,2-a]pyrano[3,4-c]pyridin-7-yl)-1,3-dihydrofuro[3,4-c][1,7]diazanaphthalene-8-carbohydrazide]",5.94,4980 ng·h/mL,999 ng/mL,4.8 h,0.8 h,4.2 h,120,8.00,11.6 °C,–,–,–,–,–,–,–,–,–
"CNN(C(=O)c1cc2c3c(c(N)nc2cn1)COC3)[C@@H]1COCc2nc(C(F)(F)F)ccc21 [Example 286-P1, (S)-4-amino-N'-methyl-N-(2-trifluoromethyl-5,8-dihydro-6H-pyrano[3,4-b]pyridin-5-yl)-1,3-dihydrofuro[3,4-c][1,7]naphthyridine-8-carbohydrazide]",5.57,1280 ng·h/mL,480 ng/mL,2.5 h,0.5 h,2.1 h,118,7.64,11.1 °C,–,–,< 4.52,–,–,–,–,–,–
[2H]C([2H])([2H])NN(C(=O)c1ccc2nc(N)c3cnn(C)c3c2c1)[C@@H]1COCc2nc(C(F)(F)F)ccc21 [Example 317],6.29,739 ng·h/mL,240 ng/mL,2.8 h,1 h,1.9 h,130,8.41,11.6 °C,–,–,–,–,–,–,–,–,–
[2H]C([2H])([2H])NN(C(=O)c1cc2c3c(c(N)nc2cn1)COC3)C1COCc2nc(C(F)(F)F)ccc21 (stereo not shown) [Example 321],–,–,–,–,–,–,–,–,10.9 °C,–,–,< 4.52,–,–,–,–,–,–
"[2H]C([2H])([2H])NN(C(=O)c1cc2c3c(c(N)nc2cc1C)COC3)C1COCc2c1ccn1c(C(F)(F)F)cnc21 (stereo not shown) [Example 357, 4-Amino-7-methyl-N'-methyl-d3-N-(3-trifluoromethyl-7,10-dihydro-8H-imidazo[1,2-a]pyrano[3,4-c]pyridin-7-yl)-1,3-dihydrofuro[3,4-c]quinoline-8-carbohydrazide]",6.12,1080 ng·h/mL,360 ng/mL,2.2 h,0.7 h,1.2 h,100,8.12,12.2 °C,–,–,–,–,–,–,–,–,–
[2H]C([2H])([2H])NN(C(=O)c1cc2c3c(c(N)nc2cn1)[C@@H](C)OC3)[C@@H]1COCc2c1ccn1c(C(F)(F)F)cnc21 [Example 362-P1],6.35,–,–,–,–,–,68,8.17,12 °C,–,–,< 4.52,–,8180 ng·h/mL,2750 ng/mL,2.8 h,0.7 h,2.7 h
"[2H]C([2H])([2H])NN(C(=O)c1cc2c3c(c(N)nc2cn1)COC3)C1COCc2c1ccn1c(C(F)(F)F)cnc21 (stereo not shown) [Example 371, 4-Amino-N'-(methyl-d3)-N-(3-(trifluoromethyl)-7,10-dihydro-8H-imidazo[1,2-a]pyrano[3,4-c]pyridin-7-yl)-1,3-dihydrofuro[3,4-c][1,7]naphthyridine-8-carbohydrazide]",–,3730 ng·h/mL,1050 ng/mL,4.4 h,0.5 h,4.4 h,–,–,10.6 °C,–,–,< 4.52,–,–,–,–,–,–
"CNN(C(=O)c1cc2c3c(c(N)nc2cn1)COC3)[C@@H]1COCc2nc(S(F)(F)(F)(F)F)ccc21 [Example 374, 4-Amino-N'-methyl-N-(2-pentafluorosulphanyl-5,8-dihydro-6H-pyrano[3,4-b]pyridin-5-yl)-1,3-dihydrofuran[3,4-c][1,7]naphthyridine-8-hydrazide]",6.52,–,–,–,–,–,23,7.89,12.3 °C,–,–,< 4.52,–,1180 ng·h/mL,652 ng/mL,1.9 h,0.5 h,1.9 h
[2H]C([2H])([2H])NN(C(=O)c1ccc2nc(N)c3cnn(C)c3c2c1)C1COCc2c1ccn1c(C(F)(F)F)cnc21 (stereo not shown) [Example 436],5.78,2030 ng·h/mL,143 ng/mL,14.9 h,3.3 h,10.8 h,185,8.05,11.5 °C,–,–,–,–,–,–,–,–,–
